# Experimental data taken from PubChem BioAssay AID434995 (Southern Research Specialized Biocontainment Screening …, 2010).
# Activity calls are given as the source filed them. How the calls were made is not given here.
# System: not listed separately
# Experiment: PhoP regulon inhibitors in S. Typhi, SAR follow-up, purified and synthesized compounds, round 3 (AID 434995)
# Conditions: S. Typhi PhoP-regulated promoter GFP reporter, 4 h; at 75 µM (top of the series)
row,SMILES,inhibition
1,O=C(Nc1ccc(Cl)cc1)N1CCCN(Cc2ccc(Br)cc2)C1,-28.5% (inactive)

# Same assay, conditions: S. Typhi PhoP-regulated promoter GFP reporter, 4 h; at 150 µM (top of the series)
row,SMILES,inhibition
1,COc1ccccc1CNC(=S)Nc1ccncc1,11.4% (inactive)
2,O=C(Nc1cccc(F)c1)N1CCCN(Cc2ccccc2F)C1,25.8% (inactive)
3,Cc1ccc(NC(=O)N2CCCN(Cc3ccccc3F)C2)cc1,-12.7% (inactive)
4,N#Cc1ccc(NC(=S)NCc2ccc(Cl)cc2)cc1,-25.7% (inactive)
5,Cc1ccccc1CNC(=S)Nc1ccncc1,-37.8% (inactive)
6,N#Cc1ccccc1NC(=S)NCc1ccc(Cl)cc1,-27.4% (inactive)
7,O=C(Nc1cccc(C(F)(F)F)c1)N1CCCN(Cc2ccccc2F)C1,8.86% (inactive)
8,O=C(Nc1cccc(I)c1)N1CCCN(Cc2ccccc2F)C1,-16.5% (inactive)

# System: S. Typhi PhoP-regulated promoter GFP reporter, 4 h
# Experiment: as above
# Conditions: not given
row,SMILES,IC50 [µM]
1,O=C(Nc1ccc(I)cc1)N1CCCN(Cc2ccccc2F)C1,81.6
2,O=C(Nc1ccc(Cl)cc1)N1CCCN(Cc2ccccc2Br)C1,116
3,S=C(NCCc1ccc(Cl)cc1)Nc1ccncc1,20.7
